Source: US11147786B2, “Methods of treating chronic dry eye disease using C16:1n7-palmitoleate and derivatives thereof” (Tersus Life Sciences, LLC, priority 2014, dated 2021)
Several values for one entry are separate records, joined by “and”; a condition that tells them apart may be missing. Equal values may be shown once. Entries after “also recorded” stand apart in the source; their conditions may differ.

What was measured:
Format in all cases: in vivo, human
[1] = tested on: patients diagnosed with dry eye disease; assay: Tear osmolarity in patients with dry eye disease, Example 1
Description: (§1) Patients diagnosed with dry eye disease (as determined by having tear osmolarity over 308 mOsms/L, which is the clinical minimum for dry eyes, per eye) were treated daily with a dietary supplement containing 210 mg of C16:1n7-palmitoleate for 30 days.
(§2) Tear osmolarity for left and right eyes were scored at day 1 and day 30, see Table 1. A tear osmolarity score of below 308 mOsms/L is normal, 308-320 mOsms/L is mild dry eyes, 320-340 mOsms/L is moderate dry eyes, and above 340 mOsms/L is severe dry eye. At day 30, patients also ranked their feeling of improvement of dry eye on a scale of 1-10, see Table 1.

[2] = tested on: patients diagnosed with dry eye disease; assay: Patient ranking of symptom improvement, Example 1; conditions: patient's ranking at day 30, 210 mg daily; one line per patient 1-8
Description: as §1, §2

[3] = tested on: patients with moderate to severe dry eye symptoms/MGD; assay: Tear osmolarity (TL) in patients with dry eye symptoms/MGD, Example 2
Description: (§3) Twenty nine patients, each diagnosed as having moderate to severe dry eye symptoms/MGD, were selected for the study.
(§4) After the initial baseline evaluation, patients received daily doses of a dietary supplement containing 210 mg of C16:1n7-palmitoleate for over 30 days.
(§5) Tear osmolarity (TL) and MGD for left and right eyes (LE and RE respectively) were scored at Day 0 (baseline evaluation) and at the follow-up visit (FV), see Table 2. A tear osmolarity score of below 308 mOsms/L is normal, 308-320 mOsms/L is mild dry eyes, 320-340 mOsms/L is moderate dry eyes, and above 340 mOsms/L is severe dry eye. The terms ‘above’ and ‘below’ refer to values above and below the detectable range of the Tearlab diagnostic device respectively. Patients also recorded their comments regarding perceived improvements of their dry eye symptoms.

[4] = tested on: patients with moderate to severe dry eye symptoms/MGD; assay: Meibomian gland dysfunction (MGD) score, Example 2; parameters: key to Day 0 MGD RE / Day 0 MGD LE / FV MGD RE / FV MGD LE: 1=meibomian glands in all 3 regions secreting/cloudy; 2=meibomian glands in 2 out of 3 regions secreting/cloudy; 3=meibomian glands in 1 out of 3 regions secreting/cloudy; 4=no observable meibomian gland secretion in any of the 3 regions; 2+ and 2,3 are used interchangeably and mean more than ⅔<1; 2+ and 2,3 are used interchangeably and mean more than ⅔<1
Source text: as §3
Patients were classified as having none, mild, or moderate meibomian gland secretion blockage by evaluating the secretion of the meibomian glands in the nasal, central, and temporal regions of the lower eyelid. MGD was scored using a 0-4 grading scale, 4 correlating with severe dysfunction. A summary of the grading scale is provided below: • 1=meibomian glands in all 3 regions secreting/cloudy • 2=meibomian glands in 2 out of 3 regions secreting/cloudy • 3=meibomian glands in 1 out of 3 regions secreting/cloudy • 4=no observable meibomian gland secretion in any of the 3 regions • 2+ and 2,3 are used interchangeably and mean more than ⅔<1.
as §4, §5

[5] = tested on: patients with moderate to severe dry eye symptoms/MGD; assay: Patient comments on perceived improvement of dry eye symptoms, Example 2; conditions: patient's comment after 210 mg daily for over 30 days; one line per patient
Description: as §3, §4, §5

For `CCCCCC/C=C\CCCCCCCC(=O)O` [C16:1n7-palmitoleate], the “Tear Osmolarity Day 1, left eye” value ([1]; Day 1 (start of treatment), left eye, one line per patient 1-8, below 308 normal, 308-320 mild, 320-340 moderate, above 340 severe) was “Left eye 294 mOsms/L; also recorded: Left eye 333 mOsms/L; also recorded: Left eye 312 mOsms/L; also recorded: Left eye 351 mOsms/L; also recorded: Left eye 322 mOsms/L; also recorded: Left eye 314 mOsms/L; also recorded: Left eye 347 mOsms/L; also recorded: Left eye 332 mOsms/L”, the “Tear Osmolarity Day 1, right eye” value ([1]; Day 1 (start of treatment), right eye, one line per patient 1-8) was “Right eye 362 mOsms/L; also recorded: Right eye 305 mOsms/L; also recorded: Right eye 340 mOsms/L; also recorded: Right eye 382 mOsms/L; also recorded: Right eye 325 mOsms/L; also recorded: Right eye 341 mOsms/L; also recorded: Right eye 328 mOsms/L; also recorded: Right eye 367 mOsms/L” and the “Tear Osmolarity Day 30, left eye” value ([1]; Day 30 of daily dietary supplement with 210 mg, left eye, one line per patient 1-8) was “Left eye 300 mOsms/L; also recorded: Left eye 302 mOsms/L; also recorded: Left eye 293 mOsms/L; also recorded: Left eye 314 mOsms/L; also recorded: Left eye 301 mOsms/L; also recorded: Left eye 308 mOsms/L; also recorded: Left eye 313 mOsms/L”. The “Tear Osmolarity Day 30, right eye” value ([1]; Day 30 of daily dietary supplement with 210 mg, right eye, one line per patient 1-8) was “Right eye 314 mOsms/L; also recorded: Right eye 300 mOsms/L; also recorded: Right eye 308 mOsms/L; also recorded: Right eye 302 mOsms/L; also recorded: Right eye 299 mOsms/L; also recorded: Right eye 307 mOsms/L; also recorded: Right eye 367 mOsms/L; also recorded: Right eye 310 mOsms/L”, the “Dry eye severity after 30 days in patients with at least one severe dry eye initially” value ([1]; patients 1, 2, 5 and 7, 30 days of treatment) was “normal or very mild dry eyes” and the “Symptom Improvement (Scale of 1-10)” value [2] was 4 (2×) and 7 (2×) and 6 (2×) and 8 and 3. For the same molecule, the “Day 0 TL LE” value ([3]; left eye, Day 0 baseline before treatment, one line per patient) was 311 mOsms/L and 307 mOsms/L (2×) and 349 mOsms/L (2×) and 312 mOsms/L and 314 mOsms/L (3×) and above (2×) and 324 mOsms/L and 339 mOsms/L and 308 mOsms/L and 364 mOsms/L (2×) and 361 mOsms/L and 317 mOsms/L (2×) and 302 mOsms/L and 326 mOsms/L and 356 mOsms/L and 320 mOsms/L and 313 mOsms/L and 358 mOsms/L and 323 mOsms/L and 327 mOsms/L, the “FV TL LE” value ([3]; left eye, follow-up visit after 210 mg daily for over 30 days, one line per patient) was 317 mOsms/L and 298 mOsms/L and 303 mOsms/L (2×) and 291 mOsms/L and 310 mOsms/L and 316 mOsms/L and 314 mOsms/L and 299 mOsms/L (2×) and 354 mOsms/L and 352 mOsms/L and 330 mOsms/L and 324 mOsms/L and 331 mOsms/L and 327 mOsms/L and 300 mOsms/L and above and 305 mOsms/L and below (2×) and 308 mOsms/L and 323 mOsms/L and 311 mOsms/L and 306 mOsms/L and the “Day 0 TL RE” value ([3]; right eye, Day 0 baseline before treatment, one line per patient 1-29, above/below = outside detectable range of Tearlab device) was 321 mOsms/L and 316 mOsms/L and 357 mOsms/L and 311 mOsms/L and 326 mOsms/L and 329 mOsms/L (2×) and 383 mOsms/L and 335 mOsms/L and below and 330 mOsms/L (2×) and 318 mOsms/L and 337 mOsms/L and 324 mOsms/L and 313 mOsms/L and 290 mOsms/L and 293 mOsms/L and 235 mOsms/L and 348 mOsms/L and 310 mOsms/L and 301 mOsms/L and 322 mOsms/L and 308 mOsms/L and 360 mOsms/L and 303 mOsms/L and 351 mOsms/L. For the same molecule, the “FV TL RE” value ([3]; right eye, follow-up visit after 210 mg daily for over 30 days, one line per patient) was 284 mOsms/L and 302 mOsms/L (3×) and 301 mOsms/L and 295 mOsms/L and 307 mOsms/L (2×) and 304 mOsms/L and 348 mOsms/L and 354 mOsms/L and 352 mOsms/L and 345 mOsms/L and 309 mOsms/L and 314 mOsms/L and 318 mOsms/L (2×) and 355 mOsms/L and below (2×) and 294 mOsms/L and 303 mOsms/L and 308 mOsms/L and 311 mOsms/L and 235 mOsms/L, the “Day 0 MGD LE” value ([4]; MGD score 0-4 (4 severe), left eye, Day 0 baseline before treatment, one line per patient) was 2 (2×) and 4 (14×) and 2+ (2×) and 3 (8×) and the “Day 0 MGD RE” value ([4]; MGD score 0-4 (4 severe), right eye, Day 0 baseline before treatment, one line per patient) was 3 (9×) and 4 (14×) and 2+ (2×) and 2. The “FV MGD LE” value ([4]; MGD score 0-4, left eye, follow-up visit after 210 mg daily for over 30 days, one line per patient) was 1 (8×) and 3 (6×) and 2 (7×) and 1, and 2+ and 4 (4×) and 0, the “FV MGD RE” value ([4]; MGD score 0-4, right eye, follow-up visit after 210 mg daily for over 30 days, one line per patient) was 1 (9×) and 3 (5×) and 2+ and 2 (6×) and 1, and 4 (5×) and 0 and the “MG secretion in patients with severe MGD scores initially” value ([4]; patients 1, 4-7, 11-13, 15-16, 20-22, 24 and 27) was “showed improvement in MG secretion”. The “Comment (perceived improvement of dry eye symptoms)” value [5] was “great (4×) and good (19×) and poor and Better and happy (2×) and better”.
